Experimental data published in ChEMBL document CHEMBL5331073, “Discovery of novel 7,7-dimethyl-6,7-dihydro-5H-pyrrolo[3,4-d]pyrimidines as ATR inhibitors based on structure-based drug design” (Eur J Med Chem, 2023).
Converted amounts (≈) assume the structure as drawn. The source made the active and inactive calls. No cut-off for these calls is given here.

Legend:
Cytochrome P450 2D6 = Cytochrome P450 2D6 (Homo sapiens, UniProt P10635); assay: Inhibition of CYP2D6 in human liver microsomes using […] as substrate preincubated for 5 mins followed by NADPH addition and measured after 120 mins by LC-MS/MS analysis; assay type: ADME, Microsome
Chain of Cytochrome P450 2D6 (P10635 whole entry): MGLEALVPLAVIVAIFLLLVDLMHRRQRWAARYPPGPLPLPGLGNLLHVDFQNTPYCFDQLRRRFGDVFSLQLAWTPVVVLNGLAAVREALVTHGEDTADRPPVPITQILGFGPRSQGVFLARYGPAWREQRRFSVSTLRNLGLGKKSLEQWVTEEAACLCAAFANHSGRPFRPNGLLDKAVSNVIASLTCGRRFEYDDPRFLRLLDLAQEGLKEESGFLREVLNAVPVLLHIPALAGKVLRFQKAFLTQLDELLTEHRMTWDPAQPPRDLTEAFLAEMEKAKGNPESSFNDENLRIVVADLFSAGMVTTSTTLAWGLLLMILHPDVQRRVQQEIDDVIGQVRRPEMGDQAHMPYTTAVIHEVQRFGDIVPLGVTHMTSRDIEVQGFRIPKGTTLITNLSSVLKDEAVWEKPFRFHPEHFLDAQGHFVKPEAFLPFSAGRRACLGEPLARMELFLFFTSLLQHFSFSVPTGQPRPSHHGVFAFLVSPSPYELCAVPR

HT-29 = assay: Antiproliferative activity against ATM-proficient human HT-29 cells assessed as reduction in cell proliferation at 0.5 to 22 uM incubated for 3 days by MTT assay; assay type: functional, cell-based; details: dose 0.5-22 µM, time 3.0 day
HCT-116 [1] = assay: Antiproliferative activity against ATM-proficient human HCT-116 cells assessed as reduction in cell viability incubated for 3 days by MTT assay; assay type: functional, cell-based; details: HCT-116, 72 h
[2] = Protein binding in monkey plasma at 1 uM incubated for 6 hrs by dialysis based LC-MS/MS analysis; assay type: ADME, cell-free, Macaca mulatta; details: rhesus monkey, read-out: PPB (converted)
in vitro [3] = details: rat, liver microsomes
[4] = AUC(0 to infinity) in Sprague-Dawley rat at 1 mg/kg, iv and measured upto 24 hrs by LC-MS analysis; assay type: ADME, organism-based; parameters: time < 24 hrs, dose 1 mg/kg, route iv; details: in vivo
[5] = Protein binding in rat plasma at 1 uM incubated for 6 hrs by dialysis based LC-MS/MS analysis; assay type: ADME, cell-free; details: read-out: PPB (converted)
[6] = Half life in Sprague-Dawley rat at 1 mg/kg, iv and measured upto 24 hrs by LC-MS analysis; assay type: ADME, organism-based; details: in vivo
OVCAR-3 = assay: Antiproliferative activity against ATM-deficient human OVCAR-3 cells assessed as reduction in cell viability incubated for 3 days by MTT assay; assay type: functional, cell-based; details: OVCAR-3, 72 h
A549 = assay: Antiproliferative activity against ATM-proficient human A549 cells assessed as reduction in cell viability incubated for 3 days in presence of AZD-1390 by MTT assay; assay type: functional, cell-based; details: A549, 72 h
[7] = Oral bioavailability in Sprague-Dawley rat at 5 mg/kg and measured upto 24 hrs by LC-MS analysis; assay type: ADME, organism-based; details: in vivo
HCT-116 [8] = assay: Synergistic antiproliferative activity against ATM-proficient human HCT-116 cells assessed as reduction in cell viability incubated for 3 days in presence of cisplatin by MTT assay; assay type: functional, cell-based; details: HCT-116, 72 h
[9] = Protein binding in Beagle dog plasma at 1 uM incubated for 6 hrs by dialysis based LC-MS/MS analysis; assay type: ADME, cell-free, Canis lupus familiaris; details: read-out: PPB (converted)
[10] = Efflux ratio of apparent permeability across basolateral to apical side over apical to basolateral side in human Caco2 cells; assay type: ADME, cell-based; details: Caco-2
LoVo [11] = assay: Inhibition of colony formation of ATM-deficient human LoVo cells at 0.3 to 1 uM incubated for 2 weeks by crystal violet staining based assay; assay type: functional, cell-based; details: dose 0.3-1 µM
LoVo [12] = assay: Antimigratory activity against ATM-deficient human LoVo cells assessed as inhibition of cell migration at 0.03 to 3 uM incubated for 24 hrs by crystal violet staining based Transwell migration assay; assay type: functional; details: dose 0.03-3 µM
in vitro [13] = details: human, liver microsomes
LoVo [14] = assay: Antiproliferative activity against ATM-deficient human LoVo cells assessed as reduction in cell proliferation at 0.1 to 25 uM incubated for 3 days by MTT assay; assay type: functional, cell-based; details: dose 0.1-25 µM, time 3.0 day
[15] = Apparent permeability across apical to basolateral side in human Caco-2 cells by bidirectional permeability assay; assay type: ADME, cell-based
Cytochrome P450 3A4 [16] = target: T1, Cytochrome P450 3A4 (Homo sapiens, UniProt P08684); assay: Inhibition of CYP3A4 in human liver microsomes using […] as substrate preincubated for 5 mins followed by NADPH addition and measured after 120 mins by LC-MS/MS analysis; assay type: ADME, Microsome
T1 sequence (P08684 whole entry): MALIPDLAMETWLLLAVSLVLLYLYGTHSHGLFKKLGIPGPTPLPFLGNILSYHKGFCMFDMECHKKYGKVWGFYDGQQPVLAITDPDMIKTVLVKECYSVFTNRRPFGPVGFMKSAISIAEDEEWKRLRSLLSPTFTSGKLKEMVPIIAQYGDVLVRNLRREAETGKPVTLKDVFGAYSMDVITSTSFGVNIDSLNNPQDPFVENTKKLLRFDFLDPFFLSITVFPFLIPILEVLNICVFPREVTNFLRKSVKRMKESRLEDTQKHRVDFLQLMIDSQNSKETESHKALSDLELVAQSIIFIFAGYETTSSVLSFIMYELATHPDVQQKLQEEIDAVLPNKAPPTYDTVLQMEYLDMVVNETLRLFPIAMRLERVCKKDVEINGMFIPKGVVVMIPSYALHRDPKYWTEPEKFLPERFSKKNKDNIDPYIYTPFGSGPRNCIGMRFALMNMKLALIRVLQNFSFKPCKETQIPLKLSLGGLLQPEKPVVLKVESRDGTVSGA

[17] = Apparent permeability across basolateral to apical side in human Caco-2 cells by bidirectional permeability assay; assay type: ADME, cell-based
MDA-MB-231 = assay: Synergistic antiproliferative activity against human MDA-MB-231 cells assessed as reduction in cell viability incubated for 3 days in presence of olaparib by MTT assay; assay type: functional, cell-based; details: MDA-MB-231, 72 h
in vitro [18] = details: rat, liver microsomes; remark: listed apart in the source
[19] = Aqueous solubility of compound at pH 7.4 by HPLC-MS/MS analysis; assay type: physicochemical; details: aqueous medium
in vitro [20] = details: human, liver microsomes; remark: listed apart in the source
[21] = AUC (0 to infinity) in Sprague-Dawley rat at 5 mg/kg, po and measured upto 24 hrs by LC-MS analysis; assay type: ADME, organism-based; parameters: time < 24 hrs, dose 5 mg/kg, route po; details: in vivo
[22] = MRT(t) in Sprague-Dawley rat at 1 mg/kg, iv and measured upto 24 hrs by LC-MS analysis; assay type: ADME, organism-based; details: in vivo
[23] = Half life in Sprague-Dawley rat at 5 mg/kg, po and measured upto 24 hrs by LC-MS analysis; assay type: ADME, organism-based; details: in vivo
Cytochrome P450 3A4 [24] = target: T1, Cytochrome P450 3A4; assay: Inhibition of CYP3A4 in human liver microsomes using midazolam as substrate preincubated for 5 mins followed by NADPH addition and measured after 120 mins by LC-MS/MS analysis; assay type: ADME, Microsome
[25] = Protein binding in mouse plasma at 1 uM incubated for 6 hrs by dialysis based LC-MS/MS analysis; assay type: ADME, cell-free; details: read-out: PPB (converted)
[26] = MRT (0 to infinity) in Sprague-Dawley rat at 1 mg/kg, iv and measured upto 24 hrs by LC-MS analysis; assay type: ADME, organism-based; details: in vivo

Row | IC50 (Cytochrome P450 2D6) [nM] | IC50 (HCT-116 [1]) [nM] | fraction unbound at 6 h, 1 µM [2] | microsomal CLint at 1 h, 1 µM (in vitro [3]) [µL/min/mg] | AUC(0-inf) [4] [ng·h/mL] | fraction unbound at 6 h, 1 µM [5] | half-life [6] [h] | IC50 (OVCAR-3) [nM] | IC50 (A549) [nM] | bioavailability [7] [%] | IC50 (HCT-116 [8]) [nM] | fraction unbound at 6 h, 1 µM [9] | efflux ratio [10] | CLint scaled at 1 h, 1 µM (in vitro [13]) [mL/min/kg] | Papp A→B [15] [×10⁻⁶ cm/s] | IC50 (Cytochrome P450 3A4 [16]) [nM] | Papp B→A [17] [×10⁻⁶ cm/s] | IC50 (MDA-MB-231) [nM] | half-life at 1 h, 1 µM (in vitro [18]) [h] | Structure (SMILES) | inhibition (LoVo [12]) | further results
1 | > 10000 | 41 | 0.079 | 66.2 | 1170 | 0.039 | 1.32 | 98 | 13 | 30 | 24 | 0.022 | 2 | 385 | 8.23 | 10000 | 16.7 | 435 | 0.35 | C[C@@H]1COCCN1c1nc(-c2cccc3[nH]ccc23)nc2c1CN(C(=O)c1cccc(S(C)(=O)=O)c1)C2(C)C | Active | Activity (HT-29): Dose-Dependent Effect; inhibition (LoVo [11]): Active; Activity (LoVo [14]): Dose-Dependent Effect; solubility [19]: 15.4 µM (≈ 8.4 µg/mL); microsomal CLint at 1 h, 1 µM (in vitro [20]): 407 µL/min/mg; AUC(0-inf) [21]: 1750 ng·h/mL; MRT last at 24 h [22]: 1.36 h; half-life [23]: 2.66 h; IC50 (Cytochrome P450 3A4 [24]): 1000 nM; fraction unbound at 6 h, 1 µM [25]: 0.024; MRT inf [26]: 1.45 h
2 | > 10000 | 196 | 0.011 | 35.3 | 2810 | 0.001 | 1.59 | 127 | 127 | 41.6 | 93 | 0.005 | 1.2 | 50.3 | 1.91 | 1000 | 2.3 | 279 | 0.655 | C[C@@H]1COCCN1c1nc(-c2cccc3[nH]ccc23)nc2c1CN(C(=O)c1ccc3c(c1)OCO3)C2(C)C | Active | solubility [19]: 0.34 µM (≈ 0.174 µg/mL); microsomal CLint at 1 h, 1 µM (in vitro [20]): 53.2 µL/min/mg; AUC(0-inf) [21]: 6170 ng·h/mL; MRT last at 24 h [22]: 1.99 h; half-life [23]: 3.81 h; IC50 (Cytochrome P450 3A4 [24]): 1000 nM; fraction unbound at 6 h, 1 µM [25]: 0.005; MRT inf [26]: 2.19 h
